Measurements as given in US11517575B2, “Use of minaprine to reduce tumor growth” (Institut Gustave-Roussy, priority 2019, dated 2022).
Peptide text beside a SMILES is read from it. * marks the point of attachment. Cbz = O=C(OCc1ccccc1)*; CH2F = FC*

System: HCT116 cells
Experiment: Cell death profiling by quantitative flow imaging of irradiated/non-irradiated co-cultures with death effector inhibitors
Assay type: cell-based, human
Settings: 4 Gy, 24 h co-culture; for PS exposure on outer plasma membrane of irradiated CMFDA+ cells: Rosco 10 μM; for engulfment of neighboring cells by gamma-irradiated CMFDA+ cells (cell-in-cell structures): Y27632 30 μM
Method: FIG. 2 Detection of γ-irradiation-elicited cell autonomous death modalities by quantitative imaging flow-cytometry. (A-E) Detection and quantification of plasma membrane integrity loss and PS exposure observed after 24 hour co-culture of untreated (red/dark grey) CMTMR-labeled HCT116 cells and untreated (green/light grey) CMFDA-labeled HCT116 cells (A, C-E), of untreated (red/dark grey) CMTMR-labeled HCT116 cells and untreated (green/light grey) CMFDA-labeled HCT116 cells that have been extemporally mixed (C-E) or after 24 hour co-culture of untreated (red/dark grey) […] HCT116 cells with (green/light grey) CMFDA-labeled HCT116 cells (green) that have been irradiated with 4 grays of γ-ionizing radiation (B-E). The co-cultures have been performed in presence or absence of the indicated pharmacological death effector inhibitors. The detection of plasma membrane integrity (with DRAQ7) and PS exposure (with BV786-streptavidin/Annexin V biotin) have been analyzed for the untreated (red/dark grey) CMTMR^+ HCT116 cells, for untreated (green/light grey) CMFDA^+ HCT116 cells, for treated (green/light grey) CMFDA^+ HCT116 cells and for total cell population (CMTMR^+ or CMFDA^+ HCT116 cells). Representative dot plots (A,B) and quantitative data (C-E) are shown (means±SEM, n=3). (F,G) Representative cell cycle distributions of untreated (red/dark grey) CMTMR^+ HCT116 cells, untreated (green/light grey) CMFDA^+ HCT116 cells, treated (green/light grey) CMFDA^+ HCT116 cells and for total cell population (CMTMR^+ or CMFDA^+ HCT116 cells) obtained after 24 hour co-culture of untreated (red/dark grey) CMTMR-labeled HCT116 cells with untreated (green/light grey) CMFDA-labeled HCT116 cells (F, H-J), of untreated (red/dark grey) CMTMR-labeled HCT116 cells and untreated (green/light grey) CMFDA-labeled HCT116 cells that have been extemporally mixed (H-J) or after 24 hour co-culture of untreated (red/dark grey) CMTM-labeled HCT116 cells with (green/light grey) CMFDA-labeled HCT116 cells (green/light grey) that have been irradiated with 4 grays of γ-ionizing radiation (G-J) are shown. Quantitative data of cell cycle analysis are shown in (H-J) (means±SEM, n=3). * or # or $ represents p<0.05, ## or $$ p<0.01, *** or ###p<0.001.
FIG. 3 Detection of γ-irradiation-elicited non-cell autonomous death modalities by quantitative imaging flow-cytometry and confocal fluorescence microscopy. (A-G) Cell-in-cell structures and target cell degradation were determined by quantitative imaging (A-C) and confocal fluorescent microscopy (D-G) after 24 hour co-culture of untreated (red/dark grey) CMTM-labeled HCT116 cells with (green/light grey) CMFDA-labeled HCT116 cells that have been irradiated with 4 grays of γ-ionizing radiation (A), coculture of untreated (red/dark grey) CMTMR-labeled HCT116 cells with untreated (green/light grey) CMFDA-labeled HCT116 cells (B, C) or on CMTMR labeled (red/dark grey) HCT116 cells and untreated (green/light grey) CMFDA-labeled HCT116 cells that have been extemporally mixed (B, C). As previously described, cells have been sequentially labeled after co-cultures with specific fluorescent probes like BV786-streptavidin-Annexin V biotin, DRAQ7, and Hoechst 33342. Then, (red/dark grey) CMTMR-labeled HCT116 cells internalizing (green/light grey) CMFDA-labeled HCT116 cells (noted R(G)), and (green/light grey) CMFDA-labeled HCT116 cells internalizing (red/dark grey) CMTMR-labeled HCT116 cells (noted G(R)) were detected. Representative images are shown in (A) (scale, 20 μm). Frequencies of Cell-in-Cell structures (B) and target cell degradation (C) are reported (means±SEM, n=3). Representative confocal images of cell-in-cell structures (white arrow) (D) and target cell degradation (white dotted arrow) (E) detected during co-culture of untreated (red) CMTMR-labeled HCT116 cells with untreated or γ-irradiated (green) CMFDA-labeled cells are shown (scale bar=10 μm). […]

SMILES	frequency of dying cells (AnnexinV+DRAQ7- and DRAQ7+) (total, non-irradiated CMTMR+ and irradiated CMFDA+ cells, BafA1 50 nM)	PS exposure on outer plasma membrane of irradiated CMFDA+ cells (ZVAD 100 μM)	engulfment of neighboring cells by gamma-irradiated CMFDA+ cells (cell-in-cell structures) (ZVAD 100 μM)	cellular degradation of engulfed CMTMR+ cells (ZVAD 100 μM, YVAD 100 μM)
CO/C1=C\C(C)=C\[C@@H](C)[C@@H](O)[C@@H](C)C/C(C)=C/C=C/[C@H](OC)[C@@H]([C@@H](C)[C@@H](O)[C@H](C)[C@@]2(O)C[C@@H](O)[C@H](C)[C@@H](C(C)C)O2)OC1=O [bafilomycin A1, Bafilomycin A1]	increased the frequency of dying cells	–	–	–
COC(=O)CC(NC(=O)C(C)NC(=O)C(NC(=O)OCc1ccccc1)C(C)C)C(=O)CF (stereo not drawn) [Z-VAD-fmk, Benzyloxycarbonyl-Val-Ala-Asp(OMe)-fluoromethylketone] (Cbz-Val-Ala-Asp(OMe)-CH2F; configuration not given here)	–	inhibited the exposure of PS	not affected	significantly reduced
C[C@@H](N)[C@H]1CC[C@H](C(=O)Nc2ccncc2)CC1 [Y27632]	–	–	repressed	–
CC[C@H](CO)Nc1nc(NCc2ccccc2)c2ncn(C(C)C)c2n1 [roscovitine, Roscovitine]	–	inhibited the exposure of PS	–	–
